Assay results reported in publication PMC11002876, “KcsA-Kv1.x chimeras with complete ligand-binding sites provide improved predictivity for screening selective Kv1.x blockers” (The Journal of Biological Chemistry, 2024).
Numbering of substitutions follows the chain as printed.

What was measured:
[1] = molecular target: T1, KcsA-Kv1.3 T-only chimera (Streptomyces lividans, UniProt P0A334, A54D/A57S/G53D/G56T/I60S/L59F/Q58G/R52A/R64D/T61S/Y62I); test: Phage-binding competition assay, KcsA-Kv1.3 T-only; design: species or system human Kv1.3 turret in Streptomyces lividans KcsA
T1 construct: made in house; host or cells: E. coli XL1-Blue (pQE30)
T1 sequence (P0A334 1-160 R52A/G53D/A54D/G56T/A57S/Q58G/L59F/I60S/T61S/Y62I/R64D): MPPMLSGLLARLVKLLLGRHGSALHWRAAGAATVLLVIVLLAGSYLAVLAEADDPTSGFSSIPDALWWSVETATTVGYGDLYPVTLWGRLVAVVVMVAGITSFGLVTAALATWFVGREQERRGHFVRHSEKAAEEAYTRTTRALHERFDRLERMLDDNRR
Procedure: (§1) Phage stock solutions were diluted to working concentration with phage resuspension buffer supplemented with 2 mM DDM. For protein immobilization, the following amounts were used in a final volume of 50 μl/well: wt KcsA, 0.1 μg; KcsA-Kv1.1 T-only, 0.005 μg; KcsA-Kv1.1 T+F, 0.02 μg; KcsA-Kv1.2 T-only, 0.01 μg; KcsA-Kv1.2 T+F, 0.1 μg; KcsA-Kv1.3 T-only, 0.01 μg; and KcsA-Kv1.3 T+F, 0.1 μg. Protein samples were diluted in 50 μl of storage buffer (20 mM Tris pH8.0, 300 mM KCl, 2 mM DDM) and were added to the designated wells of a Pierce Clear, 96-Well Nickel Coated Plate (15442, Thermo Fisher Scientific), then incubated for 1 h at room temperature on a horizontal shaker at 130 rpm. The plate was blocked for 1 h at room temperature with 180 μl/well TBS-BSA supplemented with 1 mM DDM. Following blocking, the wells were washed 4× with washing buffer (300 μl TBS-Tween, 0.1% v/v) using a Wellwash Versa microplate washer (Thermo Fisher Scientific); then 50 μl phage solution (in TBS-BSA-Tween, 0.1% v/v, 2 mM DDM) at determined phage concentration was added to the wells and incubated for 1 h at room temperature on a horizontal shaker. The plate was washed 4× with washing buffer, then 50 μl anti-M13 IgG HRP (MA5-36125, Invitrogen) diluted to 1:2500 in TBS-Tween (0.1% v/v) was added to the wells and incubated for 1 h at room temperature. The plate was washed again 4× with 300 μl/well washing buffer. Finally, 50 μl/well 1-Step Ultra TMB-ELISA solution (34028, Thermo Fisher Scientific) was added to the wells, and the developing signal was stopped with 50 μl 1M HCl after 5 to 10 min. The light absorbance signal was read at 450 nm with Byonoy absorbance 96 plate reader (Byonoy GmbH).
(§2) For protein immobilization, the following amounts were used in a final volume of 50 μl/well: KcsA-Kv1.1 T-only, 0.005 μg; KcsA-Kv1.1 T+F, 0.01 μg; KcsA-Kv1.2 T-only, 0.025 μg; KcsA-Kv1.2 T+F, 0.0125 μg; KcsA-Kv1.3 T-only, 0.01 μg; and KcsA-Kv1.3 T+F, 0.1 μg. Protein samples were diluted in storage buffer. Binding of given concentrations of relevant ligand-displaying phages quantified by light absorbance ([…]) were investigated in a similar manner as in phage ELISA-binding assay, while different concentrations of competing toxin test substances were applied simultaneously. The results were converted to percent inhibitions (percent displacement) of the indicator phage binding, and relative affinities of the tested toxins were assessed by plotting percent displacements against log concentrations and determining half maximal inhibitory concentrations (IC50) by sigmoidal curve fitting using “Sigmoidal dose-response (variable slope) with least squares method” algorithm in GraphPad Prism 8 using the following equation: Y=Bottom+Top−Bottom/1+10^(LogEC50−×)⋅HillSlope

KcsA-Kv1.3 T+F chimera = molecular target: T2, KcsA-Kv1.3 T+F chimera (Streptomyces lividans, UniProt P0A334, A54D/A57S/G53D/G56T/I60S/L59F/L81M/Q58G/R52A/R64D/T61S/Y62I/Y82H); test: Phage-binding competition assay, KcsA-Kv1.3 T+F; design: species or system human Kv1.3 turret and filter in Streptomyces lividans KcsA
T2 construct: made in house; host or cells: E. coli C41(DE3) (pET45b)
T2 sequence (P0A334 1-160 R52A/G53D/A54D/G56T/A57S/Q58G/L59F/I60S/T61S/Y62I/R64D/L81M/Y82H): T1 sequence (P0A334 1-160 R52A/G53D/A54D/G56T/A57S/Q58G/L59F/I60S/T61S/Y62I/R64D) with L81M, Y82H
Procedure: as §1, §2

[2] = molecular target: T3, KcsA-Kv1.1 T-only chimera (Streptomyces lividans, UniProt P0A334, A54E/A57S/G53E/G56E/I60S/L59F/P55A/Q58H/R52A/R64D/T61S/Y62I); test: Phage-binding competition assay, KcsA-Kv1.1 T-only; design: species or system human Kv1.1 turret in Streptomyces lividans KcsA; conditions: displacement of ShK-phage; KcsA-Kv1.1 T-only 0.005 μg/well on nickel-coated plate; mean ± SD (n = 3); NQ = not quantifiable; read-out: IC50, T-only chimera (Kv1.1)
T3 sequence (P0A334 1-160 R52A/G53E/A54E/P55A/G56E/A57S/Q58H/L59F/I60S/T61S/Y62I/R64D): T1 sequence (P0A334 1-160 R52A/G53D/A54D/G56T/A57S/Q58G/L59F/I60S/T61S/Y62I/R64D) with D53E, D54E, P55A, T56E, G58H
Procedure: as §1, §2

[3] = molecular target: T4, KcsA-Kv1.1 T-only chimera (Streptomyces lividans, UniProt P0A334, R52A/G53E/A54E/P55A/G56E/A57S/Q58H/L59F/I60S/T61S/Y62I/R64D); test: Phage-binding competition assay, KcsA-Kv1.1 T-only; design: species or system human Kv1.1 turret in Streptomyces lividans KcsA
T4 sequence (P0A334 1-160 R52A/G53E/A54E/P55A/G56E/A57S/Q58H/L59F/I60S/T61S/Y62I/R64D): T1 sequence (P0A334 1-160 R52A/G53D/A54D/G56T/A57S/Q58G/L59F/I60S/T61S/Y62I/R64D) with D53E, D54E, P55A, T56E, G58H
Procedure: as §1, §2

[4] = rank by competition IC50 among Vm24, HgTx1, KTX1

In the case of `CC[C@H](C)[C@H](NC(=O)[C@H](CCC(=O)O)NC(=O)[C@@H](NC(=O)CN)C(C)C)C(=O)N[C@@H](CC(N)=O)C(=O)N[C@H](C(=O)N[C@@H](CCCCN)C(=O)N[C@H]1CSSC[C@@H]2NC(=O)[C@H](CCCCN)NC(=O)CNC(=O)[C@H](Cc3ccccc3)NC(=O)[C@H](CCCNC(=N)N)NC(=O)[C@H](CCSC)NC(=O)CNC(=O)[C@H](C)NC(=O)[C@H](CC(=O)O)NC(=O)[C@H](CCCCN)NC(=O)[C@@H]3CSSC[C@@H](C(=O)N[C@H](C(=O)N4CCC[C@H]4C(=O)N[C@@H](CCCCN)C(=O)O)[C@@H](C)O)NC(=O)[C@H](Cc4c[nH]cn4)NC(=O)[C@H](CSSC[C@H](NC(=O)[C@H](CCC(N)=O)NC(=O)[C@@H]4CCCN4C(=O)[C@H](CO)NC(=O)CNC(=O)[C@H](CO)NC1=O)C(=O)N[C@@H](CC(C)C)C(=O)N[C@@H](CCCCN)C(=O)N1CCC[C@H]1C(=O)N3)NC(=O)[C@H](CCCCN)NC(=O)[C@H](CCCNC(=N)N)NC(=O)[C@H](CC(N)=O)NC(=O)[C@H](CCSC)NC2=O)C(C)C` [KTX1, Kaliotoxin-1], the IC50 ([1]; HgTx1-phage competition, T-only KcsA-Kv1.3, value given in figure, sigmoidal fit to means of three replicates, read-out: IC50 (Fig. 6E)) is reported as 0.416 nM, the “Rank, T-only chimera (Kv1.3)” value [1, 4] is reported as 1 and the “rank order of affinities, competition, KcsA-Kv1.3 T+F” value (KcsA-Kv1.3 T+F chimera; HgTx1-phage competition, Fig. 6F) is reported as “Vm24 > HgTx1 > KTX1”. The IC50 (KcsA-Kv1.3 T+F chimera; displacement of HgTx1-phage, KcsA-Kv1.3 T+F 0.1 μg/well on nickel-coated plate, phage ELISA absorbance, mean ± SD (n = 3), read-out: IC50, T+F chimera (Kv1.3)) was 98.2 nM, the “Rank, T+F chimera (Kv1.3)” value (KcsA-Kv1.3 T+F chimera; [4]) was 3 and the IC50 [2] was 1.27 nM. For the same compound, the “competition binding to KcsA-Kv1.1 T-only, in words” value ([3]; ShK-phage competition, native peptide, Fig. 8E (ligand-binding pattern)) was “ShK > KTX1 > MTX” and the “Rank, T-only chimera (Kv1.1)” value ([3]; rank by competition IC50 among ShK, KTX1, MTX) was 2.
